Data set [1] concerns tonic hindlimb extensor seizures in mice. In words: Threshold maximal (low-intensity) electroshock, tonic extensor seizures. The data set is classed as in vivo. Conditions: for ED50: IV, mouse, 17 mA. How it is done: Threshold maximum electroshock is an animal model test for generalized seizures that is similar to that of Piredda S G, et al, Pharmacol. and Exptl. Therap. […] The methods for this test are described as follows.
Male CF-1 mice (22-30 g) were allowed free access to food and water prior to testing. For screening, groups of five mice were given a compound intravenously at doses of 30, 100, and 300 mg/kg and tested at 0.5, 2.0, and 4.0 hours after dosing. Drugs were either dissolved in 0.9% saline or suspended in 0.2% methylcellulose. Animals were shocked with corneal electrodes (see below) and observed for tonic hindlimb extensor seizures. Absence of hindlimb extension was taken as an anticonvulsant effect.
The electroshock apparatus delivered a 60 Hz sine wave with a current amplitude of 14 mA (peak-to-peak) for 0.2 seconds.
(§1) For anticonvulsant testing, male CF-1 strain mice (20-25 g) and male Sprague-Dawley rats (75-115 g) were obtained from Charles River Laboratories and were maintained with free access to food and water before testing. […] Briefly, mice were given test substance and were tested for prevention of seizures by application of electrical current to the corneas by 2 metal electrodes covered with gauze and saturated with 0.9% sodium chloride. Electroshock stimulation was delivered by a constant-current device that produced 60 Hz sinusoidal electrical current for 0.2 seconds. For rats, maximal electroshock stimulation consisted of 120 mA of current. […] Any mouse that fell from the wire mesh during a 60 second test period was rated as ataxic.

Data set [2] is described as follows: Ataxia in mice (inverted screen procedure). Conditions: male, CF-1, in vivo, mouse. The procedure:
as §1

The next data set addresses T1, Gabapentin Receptor (Rattus norvegicus, UniProt P54290).
T1 construct: partially purified synaptic plasma membranes were prepared from rat neocortex; from tissue; host or cells: rat neocortex synaptic plasma membranes
In words: Gabapentin receptor binding, displacement of [3H]-gabapentin. The procedure: For binding studies, partially purified synaptic plasma membranes were prepared from rat neocortex using sucrose density gradients. The cerebral cortex of 10 rats was dissected from the rest of the brain and homogenized in 10 volumes (weight/volume) of ice-cold 0.32 M sucrose in 5 mM tris-acetate (pH 7.4) using a glass homogenizer fitted with a teflon pestle (10-15 strokes at 200 rpm). The homogenate was centrifuged at 100 g for 10 minutes and the supernatant collected and kept on ice. The pellet (PI) was rehomogenized in 20 mL of tris-sucrose and the homogenate recentrifuged. The combined supernatants were centrifuged at 21,500 g for 20 minutes. The pellet (P2) was resuspended in 1.2 M tris-sucrose and 15 mL of this mixture was added to ultracentrifuge tubes. On to this, 10 mL of 0.9 M sucrose was layered followed by a final layer of 5 mM tris-acetate, pH 8.0. Tubes were centrifuged at 100,000 g for 90 minutes. The synaptic plasma membranes located at the 0.9/1.2 M sucrose interface. were collected, resuspended in 50 mL of 5 mM tris-acetate, pH 7.4, and centrifuged at 48,000 g. The final pellet was resuspended in 50 mL of tris-acetate, pH 7.4, aliquoted, and then frozen until use.
The assay tissue (0.1 to 0.3 mg protein) was incubated with […] [^3H]-gabapentin in 10 mM HEPES buffer (pH 7.4 at 20° C., sodium free) in the presence of varying concentrations of test compound for 30 minutes at room temperature, before filtering onto GFB filters under vacuum. Filters were washed 3 times with 5 mL of ice cold 100 mM NaCl solution and dpm bound to filters was determined using liquid scintillation counting. Nonspecific binding was defined by that observed in the presence of […] gabapentin.
On the technique in general: In a radioligand displacement assay an active substance lowers the binding of a labelled ligand.

In data set [3] the test system is maximal electroshock seizures in mice. In words: Maximal electroshock in mice. The data set is classed as in vivo. Conditions: mouse. From the text:
For anticonvulsant testing, male CF-1 strain mice (20-25 g) and male Sprague-Dawley rats (75-115 g) were obtained from Charles River Laboratories and were maintained with free access to food and water before testing. Maximal electroshock was delivered with corneal electrodes by conventional methods (Krall, supra, 1975) except that low-intensity electroshock with mice consisted of 17 mA of current rather than the conventional 50 mA (zero to peak). Briefly, mice were given test substance and were tested for prevention of seizures by application of electrical current to the corneas by 2 metal electrodes covered with gauze and saturated with 0.9% sodium chloride. Electroshock stimulation was delivered by a constant-current device that produced 60 Hz sinusoidal electrical current for 0.2 seconds. For rats, maximal electroshock stimulation consisted of 120 mA of current. Ataxia in mice was assessed by the inverted screen procedure in which mice were individually placed on a 4.0-inch square of wire mesh that was subsequently inverted (Coughenour, supra, 1978). Any mouse that fell from the wire mesh during a 60 second test period was rated as ataxic.
All drugs were freely soluble in aqueous media. For in vivo studies, drug solutions were made in 0.9% sodium chloride and given in a volume of 1 mL/100 g body weight. Intravenous administration was given by bolus injection into the retro-orbital sinus in mice. Oral administrations were by intragastric gavage.
Background: Protection in the maximal electroshock model is a classic sign of anticonvulsant action.

The mark [4] stands for this setting: IV, read-out: IV Mouse Ataxia (ED50).
Setting [5] is: IV, read-out: IV Mouse Maximal Electroshock (ED50).
Setting [6] is: PO, read-out: PO Mouse Maximal Electroshock (ED50).

The ED50 is the dose that gives a 50% effect, or the effect in half of the subjects. By IC50 is commonly meant the concentration that gives 50% inhibition. The low end stands for higher potency, the high end for lower potency.

Where two headings read alike, the source gives them in different places.

T1 sequence (P54290 25-1091): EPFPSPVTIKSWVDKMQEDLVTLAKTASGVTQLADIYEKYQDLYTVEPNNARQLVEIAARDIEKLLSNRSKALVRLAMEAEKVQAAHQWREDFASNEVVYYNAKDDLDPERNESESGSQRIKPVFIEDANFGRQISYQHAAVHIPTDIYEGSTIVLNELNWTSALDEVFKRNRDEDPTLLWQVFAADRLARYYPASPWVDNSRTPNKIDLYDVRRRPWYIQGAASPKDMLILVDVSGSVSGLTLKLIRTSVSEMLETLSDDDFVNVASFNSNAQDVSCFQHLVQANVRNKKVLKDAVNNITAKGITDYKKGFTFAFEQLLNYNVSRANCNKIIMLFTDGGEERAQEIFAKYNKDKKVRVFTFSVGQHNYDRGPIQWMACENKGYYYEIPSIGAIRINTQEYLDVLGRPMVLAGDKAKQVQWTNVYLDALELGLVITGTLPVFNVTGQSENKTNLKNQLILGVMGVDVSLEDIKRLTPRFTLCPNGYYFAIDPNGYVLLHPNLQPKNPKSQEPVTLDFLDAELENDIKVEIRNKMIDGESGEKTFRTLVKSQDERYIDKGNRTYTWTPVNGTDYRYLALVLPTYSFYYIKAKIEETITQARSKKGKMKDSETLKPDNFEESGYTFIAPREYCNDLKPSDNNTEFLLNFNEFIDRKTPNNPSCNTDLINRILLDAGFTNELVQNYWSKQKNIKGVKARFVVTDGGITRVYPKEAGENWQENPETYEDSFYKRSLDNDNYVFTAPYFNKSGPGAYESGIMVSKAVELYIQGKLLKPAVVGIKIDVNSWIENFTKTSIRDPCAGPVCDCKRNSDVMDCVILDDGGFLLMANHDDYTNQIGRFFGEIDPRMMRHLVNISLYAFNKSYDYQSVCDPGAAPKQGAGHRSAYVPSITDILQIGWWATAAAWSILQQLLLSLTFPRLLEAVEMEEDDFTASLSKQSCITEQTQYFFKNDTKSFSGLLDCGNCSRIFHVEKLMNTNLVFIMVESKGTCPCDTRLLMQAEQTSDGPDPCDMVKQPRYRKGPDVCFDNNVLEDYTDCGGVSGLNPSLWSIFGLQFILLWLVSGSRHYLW

Take `CC(C)CC(CN)CC(=O)O` (racemic) [(R,S)-i-C4H9, H, 4-amino-3-(2-methylpropyl)butanoic acid]: the ED50 was 4.8 mg/kg in data set [1], over 100 mg/kg in data set [2] (setting [4]), 10 mg/kg in data set [3] (setting [5]) and 47 mg/kg in data set [3] (setting [6]). Further, the “time of maximum protection, threshold maximal electroshock” value in data set [1] (mice, 10 mg/kg intravenously, tested 1 hour to 8 hours) worked out at 2 h. Moreover, the “# Protected, threshold maximal electroshock” value in data set [1] (mice, 10 mg/kg intravenously, time of testing 1 hr.) was 2/10; in data set [1] (mice, 10 mg/kg intravenously, time of testing 2 hr.), 8/10; in data set [1] (mice, 10 mg/kg intravenously, time of testing 4 hr.) it was 4/10; in data set [1] (mice, 10 mg/kg intravenously, time of testing 8 hr.) it was 2/10. In data set [1] (mice, intravenously, two hour testing time), the “calculated EDSO, threshold maximal electroshock dose response” value is listed as 2.07 mg/kg. Besides, the IC50 on Gabapentin Receptor was determined as 100 nM.
`NCC1(CC(=O)O)CCCCC1` [Gabapentin, gabapentin, reference compound]: the ED50 in data set [1] was 4.3 mg/kg; in data set [2] ((IP), read-out: Mouse Ataxia (ED50)), over 100 mg/kg; in data set [3] (setting [5]), 75 mg/kg; in data set [3] (setting [6]), 200 mg/kg.
Regarding `CC(C)C[C@H](CN)CC(=O)O` [(S)-IBG, (S)-(+)-4-Amino-3-(2-methylpropyl)butanoic Acid], the ED50 is 4 mg/kg in data set [1], over 300 mg/kg in data set [2] (setting [4]), 18 mg/kg in data set [3] (setting [5]) and 12 mg/kg in data set [3] (setting [6]). In addition, at Gabapentin Receptor, the IC50 was determined as 44 nM.
With `CC(C)C[C@@H](CN)CC(=O)O` [(R)-IBG, (R)(−)-4-amino-3-(2-methylpropyl)butanoic acid], the ED50 in data set [1], in data set [2] (setting [4]) and in data set [3] (setting [5]) was over 100 mg/kg each time. Moreover, the half-inhibitory concentration (IC50) at Gabapentin Receptor worked out at 860 nM.

The values are drawn from patent US6414024B1, “GABA and L-glutamic acid analogs for antiseizure treatment” (Northwestern University, priority 1990, dated 2002).
